One series has as its system facial acne vulgaris. Description: Pilot clinical study, lesion count and irritation evaluated by a dermatologist. Format: in vivo, human.
Series [1] deals with Propionibacterium acnes (ATCC 11827). Description: Minimum Inhibitory Concentration Assay. Format: cell-based. The settings on record: ATCC 11827 (A5), visible growth, duplicate. How it is done:
(§1) The Minimum Inhibitory Concentration Assay assessed the in vitro antimicrobial potency of the test compound. […] 4 compounds were tested, which are commonly used in cosmetics or to treat acne for their effect on the growth of different P. acnes strains. The 4 tested compounds were glycolic acid, salicylic acid, lactic acid and hyaluronic acid. The first 3 are commonly used in products to treat acne, while the last one is a commonly used cosmetic compound. Any other compound can be tested the same way. The test substance was dissolved in water or DMSO (for salicylic acid) and 4 μl of the test substance was added to 196 μl of growth medium resulting in the highest tested compound concentration. Then this concentration was diluted by 2-fold serial titrations, for a total of 11 concentrations and the final vehicle concentration was 2 percent. Following incubation, the test plate was visually examined and each well was scored for growth or complete inhibition of growth; then the MIC was recorded. Each test substance was evaluated in duplicate. Vehicle-control and an active reference agent (clindamycin) were used as blank and positive controls, respectively. The following three strains were used to assess whether strain specific differences in the tolerance to these compounds could be observed: • Propionibacterium acnes (ATCC 11827)—A5 • Propionibacterium acnes (ATCC 29399) • Propionibacterium acnes (ATCC 6919)—A1 The final concentrations for each tested compound were: • 1. […] Lactic acid: 100% (13.4M): […]

Series [2] has as its system Propionibacterium acnes (ATCC 29399). Kind of series: Minimum Inhibitory Concentration Assay. Format: cell-based. The settings on record: duplicate. On the procedure:
as §1

For series [3], the system named is Propionibacterium acnes (ATCC 6919). Description: Minimum Inhibitory Concentration Assay. Format: cell-based. The settings on record: ATCC 6919 (A1), visible growth, duplicate. How it is done: as §1
The subject of a further series is acne. Particulars: McLane, 2001; cited from earlier work.
In series [4] the test system is Seb E6/E7 sebocytes. Kind of series: Neutral lipid staining with HCS LipidTOX (lipid production). The settings on record: 72 h stimulation; whole-well 5× and individual-cell 20× analysis. Format: cell-based. How it is done: An image at 5× magnification was taken from each well and then the relative fluorescence intensity quantified. Each condition was measured in triplicates. As a control, the cells were either unstimulated (blank) or stimulated with cis-9, cis-12 linoleic acid (not shown).
As a negative control, a non-stimulated blank was used and as positive control, the cells were stimulated for lipogenesis with cis-9, cis-12 linoleic acid.
Seb E6/E7 cells, which were seeded in 96-well plates and stimulated as described above were then analyzed for the induction lipid production. After 72 h of stimulation, the cells were stained with HCS LipidTOX deep red neutral lipid stain from Thermo Fisher (product no. H34477) according to the manufacturer's instructions. A final dilution of 1:450 of HCS LipidTOX dye in PBS was used for the staining. The amount of fluorescence was then evaluated using an inverted fluorescence microscope. In one approach, a complete well was imaged at 5× magnification and the total fluorescence in the image was quantified. A clear dose-dependent induction of lipid production was seen. […]
Alternatively, the fluorescent signal of individual cells, which were randomly selected from a higher magnification images, were quantified. 10 cells per image and 3 wells per condition were quantified. […]

Series [5] deals with Seb E6/E7 sebocytes.
A further series concerns P. acnes. Particulars: Allgaier et al., 1985; cited from earlier work.
The mark [6] stands for this setting: Cutibacterium acnes, ATCC29399, visible growth.

≈ marks a conversion by molar mass, not a printed value. Like-named read-outs stand apart in the source and are kept apart here. No end group written: not given here.

The MIC is the lowest concentration that inhibits growth of the organism. A high value points to a less susceptible organism.

As for `O=C(OOC(=O)c1ccccc1)c1ccccc1` [Benzoyl Peroxide, Benzoyl peroxide], in the series with facial acne vulgaris (end of week 1, of 10 subjects), the “subjects with reduced lesions” value was 4 subjects. The “subjects improved (dermatologist evaluation, lesions)” value with facial acne vulgaris (week 1 (day 7), end of 7-day Benzoyl Peroxide phase, 10 subjects) came to 40%.

For `O=C(O)CO` [Glycolic acid, glycolic acid], the minimal inhibitory concentration (MIC) amounted to 18 mM (≈ 1370 µg/mL) in series [1] (Cutibacterium acnes, ATCC11827); 60 mM (≈ 4560 µg/mL) in series [2] (setting [6]); 18 mM (≈ 1370 µg/mL) in series [3] (Cutibacterium acnes, ATCC6919).

For the compound `CC1=C(/C=C/C(C)=C/C=C/C(C)=C\C(=O)O)C(C)(C)CCC1` [Isotretinoin], the side effects entry in the series on acne is “causes skin irritation and also has teratogenic effects”.

On to `CCCCC/C=C\C/C=C\CCCCCCCC(=O)O` [cis-9, cis-12 linoleic acid], for which, in the series on Seb E6/E7 sebocytes [4], the “induction of lipogenesis (relative fluorescence of neutral lipids)” value is “induce lipogenesis”. Also, in the series on Seb E6/E7 sebocytes [5] (5 days exposure, different concentrations, triplicates), the “cytotoxic effect (low XTT metabolic activity with high LDH activity)” value is “no significant effect”.

Take `CC(O)C(=O)O` (centres unmarked) [lactic acid]: the “MIC (inhibition of growth)” value in series [1] is 0.2%; in series [2] (visible growth) it was 0.6%; in series [3], 0.2%.

With `O=C(O)c1ccccc1O` [salicylic acid], the minimum inhibitory concentration (MIC) is above 6 mM in series [1] (Cutibacterium acnes, ATCC11827); above 6 mM in series [2] (setting [6]); above 6 mM in series [3] (Cutibacterium acnes, ATCC6919).

`CCCCC/C=C\C=C\CCCCCCCCC(=O)O` [trans-10, cis 12 linoleic acid, trans-10, cis-12 linoleic acid]: the “induction of lipogenesis (relative fluorescence of neutral lipids)” value in the series on Seb E6/E7 sebocytes [4] is listed as “dose-dependent induction of lipogenesis”. In the series on Seb E6/E7 sebocytes [5], the “cytotoxic effect (low XTT metabolic activity with high LDH activity)” value is recorded as “clear dose-dependent cytotoxic effect”.

As to “Epidermin: lantibiotic, antibiotic-like peptide naturally produced by S. epidermidis (IASKFICTPGCAKTGSFNSYCC; also: lantibiotic: lanthionine-type bridges, places not given here; UniProt P08136 31-52, looked up)”, in the series with P. acnes, the “activity against P. acnes” value is “highly active”.

For the compound hyaluronic acid, the MIC in series [1], in series [2] (visible growth) and in series [3] was above 6e-05 mM each time.

The values above are taken from US11987788B2, “Methods and compositions for changing the composition of the skin microbiome using complex mixtures of bacterial strains” (S-Biomedic NV, priority 2015, dated 2024).
